Where two headings read alike, the source gives them in different places.
Legend:
[1] = test system: cervical cancer cell line HeLa; assay: Cell viability (Cell Titer 96 Aqueous), HeLa; assay type: cell-based, human; settings: 48 hours; potency order P10, polygodial, P3
Source text: (§1) Human cancer cell lines were obtained from the American Type Culture Collection (ATCC, Manassas, Va., USA), the European Collection of Cell Culture (ECACC, Salisbury, UK) and the Deutsche Sammlung von Mikroorganismen und Zellkulturen (DSMZ, Braunschweig, Germany). The OSCC cell lines, Cal27 and HSC3 are derived from human primary tongue tumor. Cal27 cells were obtained from the American Type Culture Collection (Rockville, Md.). HSC3 cells were provided by Dr. Brian Schmidt. HeLa cells (cervical cancer cell line) were obtained from ATCC. Cells were cultured in DMEM, containing 10% FBS and 1% penicillin-streptomycin media, at 37° C. in 5% CO2. All cells were authenticated by Genetic DNA Laboratories.
(§2) The cytotoxicity of polygodial, P10, P3, and P27 in Cal27, HSC3, and HeLa cells was examined in vitro using a colorimetric assay, Cell Titer 96® Aqueous Non-Radioactive Cell Proliferation Assay. […] GraphPad Prism4 was used to perform statistical analysis.

[2] = test system: human MCF-7 breast cancer; assay: MTT antiproliferative assay, MCF-7; assay type: cell-based; settings: sextuplicates, read-out: GI50 in vitro values, MCF-7
Protocol: (§3) Human mammary carcinoma MCF-7 (ATCC HTB22) cells were cultured in RPMI supplemented with 10% FBS. The U87 cells (ATCC HTB-14) were cultured in DMEM culture medium, while the A549 cells (DSMZ ACC107) were cultured in RPMI culture medium supplemented with 10% heat-inactivated FBS. The GBM Hs683 (ATCC HTB-138) cells were cultivated in DMEM supplemented with 10% FBS. The human uterine sarcoma MES-SA (ATCC CRL1966) and MES-SA/D×5 cells were cultured in RPMI-1640 medium supplemented with 10% FBS with MES SA/D×5 maintained in the presence of 500 nM Doxorubicin (Sigma). SKMEL-28 cells (ATCC HTB72) and U373 GBM cells (ECACC 08061901) were cultured in RPMI culture medium supplemented with 10% heat-inactivated FBS. Cell culture media were supplemented with 4 mM glutamine (Lonza code BE17-605E), 100 μg/mL gentamicin (Lonza code 17-5182), and penicillin-streptomycin (200 units/ml and 200 μg/ml) (Lonza code 17-602E). The MDA-MB-231 (ATCC HTB-26) epithelial mammary adenocarcinoma cells were cultured in Eagle's minimum essential medium (EMEM; Invitrogen) containing 5% fetal calf serum (FCS, Cambrex), 2 mM L-glutamine (Invitrogen), 0.06% HEPES (Invitrogen) and penicillin (50 IU/ml)/streptomycin (50 µg/ml; Invitrogen) at 37° C. in a humidified atmosphere of 5% CO2 in air. Transformed mouse NPCs were cultured in suspension under neurosphere conditions at 37° C. in a humidified atmosphere of […] and 5% CO2 in DMEM F12 (Invitrogen 11320-074) supplemented with 1×B27 supplement (Invitrogen 17504-044), 5% penicillin-streptomycin (Biochrom 10378-017), 10 ng/ml EGF (R&D systems 236-EG), 10 ng/ml FGF (PeproTech 100-18B).
(§4) Antiproliferative properties of the synthesized compounds were evaluated by the MTT assay. All compounds were dissolved in DMSO at a concentration of either 100 μM or 50 μM prior to cell treatment. The cells were trypsinized and seeded at various cell concentrations depending on the cell type. The cells were grown for 24 h to 72 h, treated with compounds at concentrations ranging from 0.001 to 100 μM and incubated for 48 or 72 h in 100 or 200 μL media depending on the cell line used. The number of experiments and replicates varied depending on the cell line. Cells treated with 0.1% DMSO were used as a negative control; 1 μM PAO was used as a positive control.
(§5) The synthesized C12-Wittig derivatives were evaluated for antiproliferative activities in a panel of cancer cell lines that included apoptosis-resistant human U373 glioblastoma (GBM) (Lefranc et al., 2013), human A549 non-small cell lung cancer (NSCLC) and human SKMEL-28 melanoma (Mathieu et al., 2009) as well as apoptosis-sensitive human Hs683 anaplastic oligodendroglioma (Lefranc et al., 2013) and human MCF-7 breast cancer (Frolova et al., 2013).

[3] = test system: human U373 glioblastoma (GBM); assay: MTT antiproliferative assay, U373; assay type: cell-based; settings: 72 h treatment, sextuplicates, read-out: GI50 in vitro values, U373
Protocol: as §3, §4, §5

[4] = molecular target: T1, CHO cells that overexpress TRPV1 (CHO-TRPV1) (Homo sapiens, UniProt Q8NER1); assay: Calcium imaging, CHO-TRPV1; assay type: cell-based; settings: for TRPV1 activation (calcium influx), CHO-TRPV1: polygodial 80 μM, P10 4 μM, P3 50 μM
T1 construct: expressed in transfected cells; host or cells: CHO cells
T1 sequence (Q8NER1 whole entry): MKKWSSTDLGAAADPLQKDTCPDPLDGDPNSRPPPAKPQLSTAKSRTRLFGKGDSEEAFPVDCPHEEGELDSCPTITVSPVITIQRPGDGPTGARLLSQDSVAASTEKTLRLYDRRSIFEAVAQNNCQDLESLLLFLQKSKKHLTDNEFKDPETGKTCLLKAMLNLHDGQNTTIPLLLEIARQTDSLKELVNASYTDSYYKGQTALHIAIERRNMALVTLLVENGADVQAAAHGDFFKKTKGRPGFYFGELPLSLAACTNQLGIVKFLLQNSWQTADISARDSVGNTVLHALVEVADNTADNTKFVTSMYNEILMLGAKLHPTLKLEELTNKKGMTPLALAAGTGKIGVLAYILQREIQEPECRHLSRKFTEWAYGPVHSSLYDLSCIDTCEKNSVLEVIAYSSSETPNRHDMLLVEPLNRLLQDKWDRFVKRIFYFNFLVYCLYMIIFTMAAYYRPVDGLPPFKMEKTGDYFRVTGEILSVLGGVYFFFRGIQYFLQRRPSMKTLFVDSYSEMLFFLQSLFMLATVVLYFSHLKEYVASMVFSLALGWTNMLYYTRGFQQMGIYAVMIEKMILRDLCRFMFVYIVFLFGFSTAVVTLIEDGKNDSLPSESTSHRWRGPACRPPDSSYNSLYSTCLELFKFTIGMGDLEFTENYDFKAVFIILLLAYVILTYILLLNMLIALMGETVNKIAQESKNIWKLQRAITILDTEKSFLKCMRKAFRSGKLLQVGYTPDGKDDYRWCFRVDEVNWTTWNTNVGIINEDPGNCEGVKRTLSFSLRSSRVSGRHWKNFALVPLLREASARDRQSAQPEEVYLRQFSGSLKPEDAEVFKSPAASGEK
Protocol: CHO cells that overexpress TRPV1 (CHO-TRPV1) were treated with polygodial (80 μM), P10 ([…]), or P3 (50 μM) and calcium influx was measured. Cells were also pre-treated with the TRPV1 antagonist capsazepine (CPZ; 10 μM) to determine if calcium influx via TRPV1 was inhibited. 3 μM ionomycin was used as a positive control. Fluo-4 Direct Calcium Assay Kit and Sweptfield confocal with Nikon Ti were used to visualize calcium influx and the images were analyzed using ImageJ software.

HeLa-derived tumors = assay: Mouse xenograft model, HeLa; assay type: in vivo, athymic nude mice; settings: for anti-tumor effect, HeLa-derived tumors: 40 μg/100 μl intra-tumor injection every other day for 18 days, polygodial significantly more efficacious than P3; for adverse effects, HeLa xenograft mice: intra-tumor injection every other day for 18 days
Protocol: Six-week old female athymic nude mice were used in laminar air-flow cabinet in pathogen-free conditions. They were acclimated for one week prior to the start of the study and kept at controlled temperature and humidity, with food and water. Mice were injected subcutaneously in the flank with 2×10^6 Cal27 cells or HeLa cells in 0.1 mL of sterile PBS. When the tumors reached 100 mm^3 (Cal27) and 150 mm^3 (HeLa), the mice were stratified into 4 groups, […], polygodial, P10, P3 and P27 at the concentrations noted in the figure legends.

HeLa cells = assay: Calcium imaging, HeLa; assay type: cell-based, human
HSC3 cells = assay: Calcium imaging, HSC3; assay type: cell-based, human; settings: for calcium influx, HSC3: polygodial 80 μM, P10 4 μM, P3 50 μM
OSCC cell line HSC3 = assay: Cell viability (Cell Titer 96 Aqueous), HSC3; assay type: cell-based, human; settings: for reversal of cytotoxicity by N-acetyl-cysteine: 60 μM compound ± 10 mM NAC; for cancer cell viability, HSC3: 48 hours, potency order P10, polygodial, P3
Source text: as §1, §2

[5] = test system: human Hs683 anaplastic oligodendroglioma; assay: MTT antiproliferative assay, Hs683; assay type: cell-based; settings: sextuplicates, read-out: GI50 in vitro values, Hs683
Protocol: as §3, §4, §5

Row | Structure (SMILES) | cancer cell viability, HeLa [1] | GI50 ([2]; Homo sapiens, MCF7, 72 h treatment) [µM] | GI50 ([3]; Homo sapiens, U373 MG) [µM] | reversal of calcium influx by capsazepine, CHO-TRPV1 ([4]; CPZ 10 μM pre-treatment) | TRPV1 activation (calcium influx), CHO-TRPV1 [4] | anti-tumor effect, HeLa-derived tumors (HeLa-derived tumors) | adverse effects, HeLa xenograft mice (HeLa-derived tumors) | reversal of calcium influx by capsazepine, HeLa (HeLa cells; CPZ 10 μM) | reversal of calcium influx by capsazepine, HSC3 (HSC3 cells; CPZ 10 μM) | calcium influx, HSC3 (HSC3 cells) | reversal of cytotoxicity by N-acetyl-cysteine (OSCC cell line HSC3) | cancer cell viability, HSC3 (OSCC cell line HSC3) | GI50 ([5]; Homo sapiens, Hs 683, 72 h treatment) [µM] | GI50 ([2]; 72 h treatment) [µM] | GI50 [3] [µM] | calcium influx, HeLa (HeLa cells; polygodial 80 μM, P10 4 μM, P3 50 μM) | GI50 ([5]; 72 h treatment) [µM]
1 | CC1(C)CCC[C@]2(C)[C@@H](C=O)C(C=O)=CC[C@@H]12 [Compound 1, Polygodial] | reduced cancer cell viability in vitro | 75 | > 99 | reversible by CPZ pre-treatment | activates TRPV1 | significant anti-tumor effects | marked inflammatory response | CPZ did not fully reverse calcium influx | inhibited by CPZ | did induce calcium influx | Cytotoxicity was reversible | reduced cancer cell viability in vitro | 95 | – | – | – | –
2 | COC(=O)/C=C/C1=CC[C@H]2C(C)(C)CCC[C@]2(C)[C@H]1C=O [Compound 5] | reduced cancer cell viability in vitro | – | – | – | do not | significant anti-tumor effects | No observable adverse effects | – | – | did not induce calcium influx | Cytotoxicity was reversible | reduced cancer cell viability in vitro | – | 7 | 22 | did not induce calcium influx | 24

— patent US20180237362A1, “NOVEL POLYGODIAL ANALOGS FOR THE TREATMENT OF CANCER AND OTHER PROLIFERATIVE DISEASES” (THE BOARD OF REGENTS OF THE UNIVERSITY OF TAXAS SYSTEM, priority 2015, published 2018)
